Measurements as given in patent US6071738A, “Conversion of organosulfur compounds to oxyorganosulfur compounds for desulfurization of fossil fuels” (Energy BioSystems Corporation, priority 1997, dated 2000).
In brackets after ≈: the same amount, converted by molar mass. Read-outs that look alike come from different tables or passages of the source.

Assays:
[1] = Precipitation of 2-(2-hydroxyphenyl)benzenesulfinic acid from acidified HPBS solution; supernatant concentration by HPLC and redissolution; assay type: physicochemical
Procedure: The pH of a concentrated (>50 mM) HPBS solution was adjusted to 1.2 at ambient temperature with concentrated sulfuric acid. An amorphous white precipitate formed rapidly and the supernatant HPBS concentration, as determined by HPLC, dropped to the range of 5-8 μM.

[2] = Solubility of 2-(2-hydroxyphenyl)benzenesulfinic acid and DBTSi in liquid hydrocarbons; assay type: physicochemical
Text: Solubility of 2-(2-hydroxyphenyl)benzenesulfinic acid and DBTSi in liquid hydrocarbons
The solubilities of 2-(2-hydroxyphenyl)benzenesulfinic acid and DBTSi in liquid hydrocarbons such as gas-oil or vacuum-gas-oil in an important parameter in process design as such refinery streams represent ultimate disposal sites for HPBS.

[3] = Titration of HPBS with hydrochloric acid or sulfuric acid (acid requirements, pKa, precipitation); assay type: physicochemical
Procedure: Acid requirements for the precipitation of 2-(2-hydroxyphenyl)benzenesulfinic acid were determined via titration with hydrochloric acid or sulfuric acid for solutions prepared from synthetic HPBS or HPBS derived from the biocatalytic oxidation of DBT. The titrations were conducted using standard methods.
FIG. 2 presents titration curves from 3 experiments. In experiment 1, a 110 mM solution of HPBS at pH 13 was treated with aqueous HCl. The HPBS phenolic group was titrated first, with a pKa of about 10.5. Precipitation of solid 2-(2-hydroxyphenyl)benzenesulfinic acid began at about pH 2, as the sulfinate group was protonated.
In experiment 2, a 110 mM HPBS solution equilibrated with a middle distillate (or diesel fuel) at 30° C. and pH 6.6 was titrated with HCl. The middle distillate was added to determine if the presence of middle distillate components have any effect on the protonation of HPBS.
In experiment 3, a 75 mM solution of HPBS prepared via the biocatalytic oxidation of DBT was titrated with sulfuric acid.

[4] = comparison value for benzenesulfinic acid; cited from earlier work

## O=S(O)c1ccccc1-c1ccccc1O [2-(2-hydroxyphenyl)benzenesulfinic acid]
[1]; organic solvents, such as toluene
  solubility of precipitate in organic solvents, such as toluene: only sparingly soluble
[1]; water at neutral pH
  dissolution of precipitate in water: dissolved rapidly
[2]; ambient temperature, TMD, x-ray fluorescence detection
  solubility in TMD: below the limits of detection
[2]; ambient temperature, hexadecane, x-ray fluorescence detection
  solubility in hexadecane: below the limits of detection
[2]; ambient temperature, toluene, x-ray fluorescence detection
  solubility in toluene: below the limits of detection
[2]; gas-oil, 50° C.
  solubility in gas-oil: no detectable solubility
[2]; middle distillate, 50° C.
  solubility in middle distillate: no detectable solubility
[3]; 110 mM HPBS titrated with aqueous HCl
  pH at which precipitation of solid began: ~2

## O=S1Oc2ccccc2-c2ccccc21 (centres unmarked) [DBTSi, dibenzothiophene sultine]
[2]
  solubility in gas-oil: ca. 1.4%
  solubility in hexadecane: 0.33 % by weight
  solubility in liquid hydrocarbons, in words: substantially more soluble in liquid hydrocarbons
  solubility in middle distillate: ca. 1%
  solubility in vacuum gas oil: 4.3%
  temperature dependence of solubility in the hydrocarbon: increased with increasing temperature

## O=S(O)c1ccccc1-c1ccccc1O [HPBS, 2-(2'-hydroxyphenyl)benzenesulfinate]
[1]; water, pH 1.2, ambient temperature, concentrated (>50 mM) HPBS, sulfuric acid, HPLC, read-out: supernatant HPBS concentration after precipitation
  solubility: 5 to 8 µM (≈ 1.17 to 1.87 µg/mL)
[3]; 110 mM HPBS at pH 13 titrated with aqueous HCl, read-out: pKa of phenolic group
  pKa: ~10.5

## O=S(O)c1ccccc1 [benzenesulfinic acid]
[4]
  pKa: 1.2
